# Values of other authors as cited in patent US10324098B2, “T2R taste receptors and genes encoding same” (SENOMYX, INC., priority 2000, dated 2019).
# How the values were obtained:
# [1] = biological target: T1, mouse T2R8 (Mus musculus, UniProt Q9JKT3)
# T1 sequence (Q9JKT3 1-297): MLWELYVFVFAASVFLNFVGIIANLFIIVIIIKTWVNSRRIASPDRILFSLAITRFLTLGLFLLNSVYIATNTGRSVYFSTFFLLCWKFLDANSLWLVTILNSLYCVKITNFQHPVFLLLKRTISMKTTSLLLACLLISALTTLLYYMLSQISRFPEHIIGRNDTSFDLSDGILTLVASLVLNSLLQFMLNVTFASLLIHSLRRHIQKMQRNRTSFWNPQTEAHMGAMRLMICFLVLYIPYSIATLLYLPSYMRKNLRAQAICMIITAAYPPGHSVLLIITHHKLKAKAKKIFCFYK
# [2] = biological target: T2, human T2R4 (Homo sapiens, UniProt Q9NYW5)
# T2 sequence (Q9NYW5 1-299): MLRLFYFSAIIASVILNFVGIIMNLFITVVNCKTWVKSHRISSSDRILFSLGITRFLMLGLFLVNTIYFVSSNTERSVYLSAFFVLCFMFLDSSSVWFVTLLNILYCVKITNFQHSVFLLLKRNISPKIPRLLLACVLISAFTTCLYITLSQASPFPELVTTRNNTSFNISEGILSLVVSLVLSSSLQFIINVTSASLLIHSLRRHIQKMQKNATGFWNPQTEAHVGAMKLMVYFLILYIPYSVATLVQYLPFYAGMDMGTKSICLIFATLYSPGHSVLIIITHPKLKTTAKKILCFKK
# [3] = biological target: T3, mouse T2R5 (Mus musculus, UniProt Q9JKT4)
# T3 sequence (Q9JKT4 1-300): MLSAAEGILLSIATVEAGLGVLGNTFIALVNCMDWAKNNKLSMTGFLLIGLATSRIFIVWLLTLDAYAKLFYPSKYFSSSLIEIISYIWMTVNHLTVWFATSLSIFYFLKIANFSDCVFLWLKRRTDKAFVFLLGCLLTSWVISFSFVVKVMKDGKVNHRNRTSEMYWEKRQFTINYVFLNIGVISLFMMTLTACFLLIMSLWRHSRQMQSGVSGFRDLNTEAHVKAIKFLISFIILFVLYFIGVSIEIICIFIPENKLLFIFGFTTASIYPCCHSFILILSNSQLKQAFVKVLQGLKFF
# [4] = biological target: T3, mouse T2R5; conditions: mouse T2R5, G Protein gustducin
Compound,receptor responsive to tastant [1],receptor responsive to tastant [2],receptor receptive to tastant [3],ligand dependent coupling with gustducin [4]
"CCCc1cc(=O)[nH]c(=S)[nH]1 [PROP, 6-n-propylthiouracil]",specifically responsive,specifically responsive,,
C[C@@H]1C[C@@H]([C@H](O)CC2CC(=O)NC(=O)C2)C(=O)[C@@H](C)C1 [cycloheximide],,,specifically receptive,strong cycloheximide dependent coupling with gustducin
CC[N+](CC)(CC(=O)Nc1c(C)cccc1C)Cc1ccccc1 [denatonium],specifically responsive,specifically responsive,,
